Measured values as given in patent US12357619B2, “Noradrenergic and specific serotonergic anxiolytic and antidepressant, method for the production and use thereof” (ALLA CHEM, LLC, priority 2020, dated 2025).
Where two headings read alike, the source gives them in different places.

Experiments:
Adrenergic α2A = biological target: T1, Adrenergic α2A (Homo sapiens, UniProt P08913); assay: Receptor activities, Ki (Table 1); format: binding
T1 sequence (P08913 1-465): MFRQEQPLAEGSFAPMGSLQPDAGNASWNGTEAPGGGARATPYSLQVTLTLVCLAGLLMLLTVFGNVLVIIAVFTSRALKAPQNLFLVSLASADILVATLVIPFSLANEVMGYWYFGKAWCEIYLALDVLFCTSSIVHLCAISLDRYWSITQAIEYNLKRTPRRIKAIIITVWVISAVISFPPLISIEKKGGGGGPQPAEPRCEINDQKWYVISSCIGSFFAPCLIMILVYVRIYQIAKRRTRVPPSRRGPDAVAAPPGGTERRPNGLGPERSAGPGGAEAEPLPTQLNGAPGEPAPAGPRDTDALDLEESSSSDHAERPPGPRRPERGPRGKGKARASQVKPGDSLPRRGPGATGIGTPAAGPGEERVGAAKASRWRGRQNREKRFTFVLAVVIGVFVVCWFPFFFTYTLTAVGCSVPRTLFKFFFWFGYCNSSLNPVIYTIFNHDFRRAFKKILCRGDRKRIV

Adrenergic α2B = biological target: T2, Adrenergic α2B (Homo sapiens, UniProt P18089); assay: Receptor activities, Ki (Table 1); format: binding
T2 sequence (P18089 1-450): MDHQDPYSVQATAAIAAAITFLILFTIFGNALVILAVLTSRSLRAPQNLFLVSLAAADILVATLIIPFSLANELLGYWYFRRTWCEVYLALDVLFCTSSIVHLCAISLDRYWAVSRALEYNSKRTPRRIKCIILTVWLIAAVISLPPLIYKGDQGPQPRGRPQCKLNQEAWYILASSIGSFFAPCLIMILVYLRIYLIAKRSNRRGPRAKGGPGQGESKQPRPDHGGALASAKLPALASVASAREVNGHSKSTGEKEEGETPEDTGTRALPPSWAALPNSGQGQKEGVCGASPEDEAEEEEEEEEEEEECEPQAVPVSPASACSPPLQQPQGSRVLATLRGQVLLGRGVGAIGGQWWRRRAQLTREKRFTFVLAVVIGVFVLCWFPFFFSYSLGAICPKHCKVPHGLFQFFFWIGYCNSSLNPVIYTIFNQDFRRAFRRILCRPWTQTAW

[1] = system: people with generalized anxiety disorder (GAD); assay: Randomized double-blind placebo-controlled GAD study, Hamilton depression scale (HAMD); format: in vivo, human; conditions: after 8 weeks
Procedure: (§1) Example 12. Efficacy and safety study of the oral drug of this invention made as a pharmaceutical composition of this invention in capsules. […] During the study, 3 scheduled visits were conducted in Week 2, Week 4, and Week 8 to assess the effectiveness and safety of the therapy as well as drug inventory and administration. During all of those visits, the patient's diary was checked, a drug inventory was made and the patients' compliance was assessed. In addition, adverse events, concomitant therapy, and vital signs were evaluated, urine drug screen was performed, and assessments using Hamilton Anxiety Rating Scale (HARS), Hamilton Depression Scale (HAMD), Clinical Global Impression-Severity (CGI-S), Clinical Global Impression-Improvement (CGI-I), and Visual Analog Scale (VAS) were made; women of child-bearing potential will take a urine pregnancy test. Also, during visits at Week 4 and Week 8 a physical examination was performed, body weight was measured, an ECG was performed in 12 leads and blood and urine samples were obtained for laboratory tests, namely: urinalysis and biochemical blood analysis, PK analysis before and 1 hour after taking the study drug (SD), and urinalysis. At Week 4, a blood sample was also obtained for genotyping by CYP2D6. […] During this time, a possible development of SD withdrawal syndrome against the background of placebo was evaluated. […]

[2] = system: people with generalized anxiety disorder (GAD); assay: Randomized double-blind placebo-controlled GAD study, visual analog scale (VAS); format: in vivo, human; conditions: after 8 weeks
Procedure: as §1

[3] = Pharmacokinetics, single oral administration of capsules in healthy volunteers (Example 10); format: in vivo, human; conditions: for AUC(0-inf) / Tmax / Cmax: capsules; for AUC(0-inf) / Tmax: 8 volunteers; for Cmax: average of 8 volunteers
Description: Clinical study of the safety of the oral drug of this invention.

[4] = Pharmacokinetics, single and multiple dosing of capsules in volunteers (Example 11); format: in vivo, human; conditions: for half-life / Tmax: human, in vivo, oral
Procedure: Example 11. Safety study of increasing doses of the oral drug of this invention made as a pharmaceutical composition of this invention in capsules. Clinical safety study of increasing doses of the antipsychotic drug made as a pharmaceutical composition of this invention in capsules for single and multiple dosing. The study covered one cohort of 4 volunteers taking antipsychotic drug once at a dose of 20 mg, and then at the same dose 2 times a day for 4 days. Based on the three-week safety data obtained in the 20-mg cohort taking antipsychotic drug twice a day, the independent safety data monitoring Committee took a decision to involve a second cohort of 4 volunteers, in which the antipsychotic drug under test was taken once at a dose of 20 mg and then 3 times a day for 4 days at the same dose.

[5] = male, human, blood, single oral dose 2 mg
[6] = male, human, blood, single oral dose 4 mg
[7] = male, human, blood, single oral dose 10 mg
[8] = male, human, blood, single oral dose 20 mg

Cc1ccc2c(c1)c1c(n2CCc2ccccc2)CCN(C)C1.Cl [A•HCl, 2,8-dimethyl-5-(2-phenylethyl)-2,3,4,5-tetrahydro-1H-pyrido[4,3-b]indole hydrochloride]
Ki (Adrenergic α2A): 1.77 nM
Ki (Adrenergic α2B): 0.41 nM
HAMD average change (standard error) ([1]; 40 mg, N = 42, average at Week 0 10.9): −5.2 (0.57)
HAMD average change (standard error) ([1]; 60 mg, N = 44, average at Week 0 10.9): −4.4 (0.56)
VAS average change (standard error) ([2]; 40 mg, N = 42, average at Week 0 24.1): −9.5 (3.24)
VAS average change (standard error) ([2]; 60 mg, N = 44, average at Week 0 27.4): −11.1 (3.23)
Dose dependence of Cmax and AUC ([3]; dose range from 2 to 20 mg): linear increase in Cmax and AUC
AUC(0-inf) [3, 5]: 0.0946 ng·h/mL
Tmax [3, 5]: 1 h
Cmax ([3]; male, human, blood, single oral dose 2 mg, read-out: Cmax): 0.0021 ng/mL
AUC(0-inf) [3, 6]: 0.211 ng·h/mL
Tmax [3, 6]: 1 h
AUC(0-inf) [3, 7]: 0.462 ng·h/mL
Tmax [3, 7]: 0.625 h
AUC(0-inf) [3, 8]: 0.834 ng·h/mL
Tmax [3, 8]: 1 h
half-life ([3]; male, human, blood, single oral doses 2 to 20 mg, read-out: Harmonic mean half-life): ≤ 14 h
Cmax ([3]; single oral dose 4 mg): 0.0229 ng/mL
Cmax ([3]; single oral dose 10 mg): 0.0537 ng/mL
Cmax ([3]; single oral dose 20 mg): 0.0841 ng/mL
Time at which the maximum concentration in the blood of the base (A) is reached ([3]; single oral doses 2 to 20 mg): about an hour
Accumulation factor (Fc) ([4]; 40-mg cohort): 2.5
Accumulation factor (Fc) ([4]; 60-mg cohort): 2.1
half-life ([4]; 20 mg, single dose, 40-mg cohort): 10.3 ± 5.4 h
Tmax ([4]; 20 mg, single dose, 40-mg cohort, read-out: Tmax, median): 0.75 h
half-life ([4]; 20 mg, single dose, 60-mg cohort): 7.3 ± 2.6 h
Tmax ([4]; 20 mg, single dose, 60-mg cohort, read-out: Tmax, median): 2.3 h
Tmax ([4]; 20 mg, single dose, majority of volunteers, read-out: Tmax, variation): 0.5 to 4 h
Tmax ([4]; 40 mg/day, repeated doses, 40-mg cohort, read-out: Tmax, median): 0.38 h
Tmax ([4]; 60 mg/day, repeated doses, 60-mg cohort, read-out: Tmax, median): 1 h
Time to stabilization of the residual concentration after the start of regular drug administration ([4]; multiple dosing): 1 to 2 days
Tmax, variability range ([4]; repeated doses): 0.3 to 4 h
Increase in T1/2 after repeated administration, on an average ([4]; repeated vs single administration): 1.4 times
